Patent US20050112075A1, “Reduction of hair growth” (priority 2003, published 2005)

Test system: Human hair follicles in growth phase (anagen)
Test: Human hair follicle growth assay
Format: cell-based
Conditions: for Hair follicle length increase (mm), Treated: day 0 to day 7 in culture
Experimental: Human hair Follicle Growth Assay:
Human hair follicles in growth phase (anagen) were isolated from face-lift tissue (obtained from plastic surgeons) under dissecting scope using a scalpel and watchmakers forceps. The skin was sliced into thin strips exposing 2-3 rows of follicles that could readily be dissected. Follicles were placed into 0.5 ml William's E medium (Life Technologies, Gaithersburg, Md.) supplemented with 2 mM L-glutamine, 10 μg/ml insulin, 10 ng/ml hydrocortisone, 100 units of penicillin, 0.1 mg/ml streptomycin and 0.25 μg/ml amphotericin B. The follicles were incubated in 24-well plates (1 follicle/well) at 37° C. in an atmosphere of 5% CO2 and 95% air. Compounds are dissolved into dimethyl sulfoxide as 100-fold stock solution. The control hair follicles were treated with dimethyl sulfoxide without prostaglandin. The follicles were photographed in the 24-well plates under the dissecting scope at a power of 10×. Typically, image recordings were made on day 0 (day follicles were placed in culture), and again on day 7. The length of hair follicle was assessed using an image analysis software system. The growth of hair fiber was calculated by the subtracting the follicle length on day 0 from that determined on day 7.

[1] = dose 50 μM, vs dimethyl sulfoxide control
[2] = dose 1 μM, dose-dependence study
[3] = dose 5 μM, dose-dependence study
[4] = dose 10 μM, dose-dependence study
[5] = dose 30 μM, vs dimethyl sulfoxide control

Structure (SMILES) | Hair follicle length increase (mm), Treated (dose 50 μM) | % Reduction of human hair follicle growth [1] | % Reduction of human hair follicle growth [2] | Growth of follicle (mm), Treated [2] | % Reduction of human hair follicle growth [3] | Growth of follicle (mm), Treated [3] | % Reduction of human hair follicle growth [4] | Growth of follicle (mm), Treated [4] | Hair follicle length increase (mm), Treated (dose 30 μM) | % Reduction of human hair follicle growth [5] | other results
C=C1C[C@H](O)[C@H](C/C=C\CCCC(=O)O)[C@H]1/C=C/[C@@H](O)CCCCC [11-Deoxy-11-methylene PGD2] | 1.11 ± 0.14 mm | 36.9 ± 8.0% | – | – | – | – | – | – | – | – | –
CCCCC[C@@](C)(O)/C=C/[C@H]1C(=O)C[C@H](O)[C@@H]1C/C=C\CCCC(=O)O [15(R)-15-Methyl PGD2] | 0.04 ± 0.05 mm | 97.5 ± 3.1% | – | – | – | – | – | – | – | – | –
CCCCC[C@H](O)/C=C/[C@H]1C(=O)C[C@H](O)[C@@H]1C/C=C\CCCC(=O)O [PGD2, prostaglandin D2] | – | – | 4.4% | 1.51 ± 0.28 mm | 12.7% | 1.38 ± 0.30 mm | 38.0% | 0.98 ± 0.32 mm | 0.24 ± 0.10 mm | 87.3 ± 5.0% | Hair growth inhibition profile (dose dependence, in words): dose dependent; Reduction of human hair follicle growth (in words): significant reduction of human hair follicle growth
CCCCC[C@](C)(O)/C=C/[C@H]1C(=O)C[C@H](O)[C@@H]1C/C=C\CCCC(=O)O [15(S)-15-Methyl PGD2] | – | – | – | – | – | – | – | – | – | – | Hair follicle length increase (mm), Treated (dose 100 μM): 0.08 ± 0.06 mm; % Reduction of human hair follicle growth (dose 100 μM, vs dimethyl sulfoxide control): 92.7 ± 5.5%
CCCCC/C=C/C=C1/C(=O)C[C@H](O)[C@@H]1C/C=C\CCCC(=O)O [15-Deoxy-Δ^12,14-PGD2] | 0.10 ± 0.08 mm | 94.3 ± 4.5% | – | – | – | – | – | – | – | – | –
CCCCC[C@H](O)C/C=C1/C(=O)C=C[C@@H]1C/C=C\CCCC(=O)O [Δ^12-PGJ2] | – | – | 0.7% | 1.40 ± 0.44 mm | 10.6% | 1.26 ± 0.38 mm | 77.3% | 0.32 ± 0.15 mm | 0.29 ± 0.46 mm | 84.6 ± 24% | –
CCCCC(C)(C)[C@H](O)/C=C/[C@H]1C(=O)C[C@H](O)[C@@H]1C/C=C\CCCC(=O)O [16,16-Dimethyl PGD2] | 0.10 ± 0.05 mm | 94.3 ± 2.8% | – | – | – | – | – | – | – | – | –
O=C(O)CCC/C=C\C[C@H]1[C@@H](O)CC(=O)[C@@H]1/C=C/[C@@H](O)CCc1ccccc1 [17-Phenyl trinor PGD2] | 0.10 ± 0.12 mm | 93.8 ± 7.4% | – | – | – | – | – | – | – | – | –
CCCCC/C=C/C=C1/C(=O)C=C[C@@H]1C/C=C\CCCC(=O)O [15-Deoxy-Δ^12,14-PGJ2] | – | – | 0% | 1.42 ± 0.37 mm | 34.8% | 0.21 ± 0.13 mm | 94.3% | 0.08 ± 0.07 mm | 0.10 ± 0.09 mm | 94.7 ± 5.0% | –
CCCCCC=CC=C1CCC(=O)C1C/C=C\CCCC(=O)O (centres unmarked) [9,10-Dihydro-15-deoxy-^Δ12,14-PGJ2, 9,10-dihydro-15-deoxy-Δ^12,14-PGJ2] | 0.02 ± 0.03 mm | 98.8 ± 1.9% | – | – | – | – | – | – | – | – | –
CCCCC[C@H](O)/C=C/[C@H]1C(=O)C=C[C@@H]1C/C=C\CCCC(=O)O [PGJ2] | – | – | 9.5% | 1.43 ± 0.34 mm | 34.8% | 1.03 ± 0.35 mm | 68.4% | 0.50 ± 0.29 mm | 0.16 ± 0.25 mm | 91.5 ± 13% | Hair growth inhibition profile (dose dependence, in words): dose dependent; Reduction of human hair follicle growth (in words): reduce hair growth
